Data as given in patent publication US4771130A, “Target-entrapped drugs” (priority 1984, dated 1988).

Tests used:
[1] = tested on: cataract formation in rat lenses; test: Cataract formation in rat lenses in organ culture: X-ray irradiated; assay type: cell-based; settings: 175 Rads X-rays, galactose, eight days
Procedure: (§1) Organ culture was performed by a modification of the method of Kinoshita et al (see Biochem. Biophys. Acta 158, 472-475 (1968)) with a modified TC 199 medium using 50-75 gm Sprague-Dawly male rats, care being taken to avoid contamination of the system. Fresh rat lenses were treated with Asub-Q in the manner hereinafter described and incubated in the presence of fructose and in the presence of galactose, in order to determine the effect of the Asub-Q. The Asub-Q treatment involved the following:
This experiment was similar to the photoirradiation experiment except that the lenses were irradiated with 175 Rads of X-rays in place of light. […] Lenses incubated with galactose would be completely opaque (V).

[2] = molecular target: T1, aldose reductase in a crude extract of rat lens (Rattus norvegicus, UniProt P07943); test: Reversible inhibition of aldose reductase (Ki and type of inhibition); assay type: biochemical
T1 construct: aldose reductase in a crude extract of rat lens; from tissue; host or cells: rat lens (crude extract, usually lyophilized)
Procedure: (§2) Lens aldose reductase used for test purposes was extracted and assayed by the technique reported by Hayman and Kinoshita (see J.Biol. Chem. 240, 877-882 (1965)). The extract was usually adjusted to pH 7.0 and lyophilized. This product is stable indefinitely in the cold and provides particularly reliable assay results since day to day rates are reproducible.
The Ki and type of inhibition of aldose reductase by Asub-Q (0.274 mM) was determined at pH 6.3 in 0.1M phosphate buffer using a saturating concentration of NADPH (121 uM). The results are plotted in FIG. 6.

aldose reductase [3] = molecular target: T2, aldose reductase (Rattus norvegicus, UniProt P07943); test: X-ray induced irreversible inhibition of aldose reductase; assay type: biochemical
Procedure: as §2
X-ray irradiation was performed with a General Electric Maximum-100 type X-ray machine using the following settings: 100 kVp, 5 ma, 3 mm Al added, HUL=2.6 mm Al, calibrated output=175 R/min. at 15 cm. Two ml of solution with components at the same concentrations used in photolysis experiments were X-rayed in 50 mm diameter open petri dishes placed at 15.9 cm from the X-ray source. The dosages were varied from 5 to 100 Rads, requiring 1, 2, 3, 4, 34 and 51 seconds exposure, respectively.

[4] = tested on: cataract formation in rat lenses; test: Cataract formation in rat lenses in organ culture: light irradiated; assay type: cell-based
Procedure: as §1
(a) rat lenses were incubated in the dark in an incubation medium containing Asub-Q for two hours to permit the drug to diffuse into the lens;
(b) the lenses were then placed into a fresh medium and irradiated for 10 minutes for complete inhibition of aldose reductase;
(c) the lenses were then placed into a fresh medium for […] with four changes in medium in the first 24 hours to permit non-covalently bound drug to diffuse out; and
(d) the lenses were then incubated in a medium containing fructose or galactose.
In a typical experiment four groups of 20 lens, four to a Petri dish, were used. The first group was supplemented with fructose (30 mM); the second, with galactose (30 mM); the third, with fructose (30 mM) and treated with Asub-Q (0.145 mM); and the fourth, with galactose (30 mM) and treated with Asub-Q ([…]). The lens were photographed with color film on a red background and evaluated on a O to V scale with O assigned to a clear lens and V to a lens with a totally opaque cataract. The procedure for treatment and photolysis of the lens was described above.
The number outside the parenthesis is the status of the lenses: O to V. The number inside the parenthesis is the number of the lenses.

[5] = tested on: cataract formation in rats; test: Cataract formation in galactose-fed rats: light irradiated; assay type: in vivo, rat
Procedure: Approximately 5-10 μl of Asub-Q (0.65 mM) dissolved in DMSO was injected into the aqueous humour of the right eye of each of three 75 g. rats. After 1 hour, when the drug had diffused into the lens, the rat was irradiated for 30 minutes in a Rayonet Photochemical Reactor. The rats were fed ad-libinum with a mix of 1:1 chow:galactose. The control eyes (left eye) developed detectable cataracts after 3 days.

aldose reductase [6] = molecular target: T2, aldose reductase; test: Irreversible inhibition of aldose reductase induced by photoirradiation (350 nm); assay type: biochemical
Procedure: as §2
Photolysis of Asub-Q and aldose reductase was studied in the presence and absence of saturating substrate concentrations (0.274 mM glyceraldehyde, and 0.111 mM NADPH) in 0.1M phosphate buffer, pH 6.3. Photolysis was performed in 3 ml quartz spectrophotometer cuvettes in a Rayonet photochemical reactor with a 350 nm maxima light source. The enzyme was separated from the non-covalently bound inhibitor by passing the photolyzed solution through a Sephadex G-25 column as described above. The results are plotted in FIG. 7. […] The enzyme photolyzed with inhibitor in the presence or absence of substrate is 80% inhibited after 10 minutes.

[7] = pH 6.3, 0.1M phosphate buffer, NADPH 121 uM

## N-(2-nitro-4-azidophenyl) hexylenediamine-N-(2'-O-quercitrin) [Asub-Q]
[1]
  number of lenses per cataract status: 5 clear lenses (O) and 6 with a slight cataract (I)
[2]; crude extract of rat lens
  Ki compared with quercitrin: very similar to quercitrin
[2]; [7]
  Ki: 480 nM
  type of inhibition: noncompetitive inhibitor
[2]; summary statement
  reversible inhibitor activity compared with quercitrin: about the same as quercitrin
[2]; without photolysis
  reversible inhibition of aldose reductase: reversibly inhibits aldose reductase
Aldose reductase [3]; 20 Rads irradiation or above
  loss of enzyme activity: approximately two thirds
Aldose reductase [3]; mixture of Asub-Q and rat lens extract irradiated with X-rays
  irreversible inhibition of aldose reductase: extensively irreversibly inhibited
[4]; day 35
  cataract progression vs fructose control: not nearly as advanced
[4]; lenses containing Asub-Q, after three days
  lens clarity: remained clear
[4]; overall, organ culture
  resistance to cataract formation vs fructose control lenses: at least as impervious to cataract formation as control lenses that were incubated with fructose
[5]; 5-10 μl of 0.65 mM in aqueous humour, light 30 minutes, 1:1 chow:galactose, 7 days
  cataract in treated right eyes: no cataract was observed
[5]; repeated on thirty rats
  cataract formation, repeat experiment: equivalent results
Aldose reductase [6]; 10 minutes photolysis, 350 nm, in presence or absence of substrate, pH 6.3
  inhibition of enzyme photolyzed with inhibitor: 80%
Aldose reductase [6]; light maximum at 350 nm, chromatographic removal of small molecules
  type of inhibition after irradiation (kinetic analysis): both specific irreversible inhibition and non-specifically bound reversible (soluble immobilized inhibitor) inhibition occur
Aldose reductase [6]; one minute photolysis, 350 nm
  irreversible inhibition: roughly 40%
Aldose reductase [6]; photo- or X-ray irradiation, summary statement
  irreversible inhibition on irradiation: photo- or X-ray sensitive irreversible affinity inhibitor for aldose reductase
